Test results reported in patent US20060110803A1 (Crucell Holland B.V., priority 2003, published 2006).

Key:
[1] = tested on: antibodies in sera of individuals which have been and/or are infected by SARS-CoV (SARS-green, SARS-yellow, 1a, 1b, 2, 6, 37, 62, London); type: binding, human
[2] = tested on: antibodies in control sera (pooled serum of 10 healthy LUMC hospital workers; commercial negative donor pooled serum); type: binding, human
[3] = tested on: antibodies in rabbit serum obtained by immunizing a rabbit with the SARS-CoV strain Frankfurt 1; type: binding

Sequence	recognition by sera of SARS-CoV infected individuals (domains homologous with OC43 spike) [1]	recognition by control sera (domains homologous with OC43 spike) [2]	recognition by sera of SARS-CoV infected individuals, looped/cyclic form [1]	recognition by rabbit serum [3]
GYHLMSFPQAAPHGVVFLHVTYVPSQERNFTTAPAICHEGKAYFPREG [SEQ ID NO:1247]	recognition by sera derived from individuals which have been and/or are still infected by SARS-CoV	recognition by control sera derived from individuals which have not been infected by SARS-CoV	–	–
KPTKRSFIEDLLF [SEQ ID NO:1244]	recognition by sera derived from individuals which have been and/or are still infected by SARS-CoV	recognition by control sera derived from individuals which have not been infected by SARS-CoV	–	–
TTSTALGKLQDVVNQ [SEQ ID NO:950]	–	–	recognized in looped/cyclic form	recognized by the rabbit serum
VLYENQKQIANQFNKAISQIQ [SEQ ID NO:1245]	recognition by sera derived from individuals which have been and/or are still infected by SARS-CoV	recognition by control sera derived from individuals which have not been infected by SARS-CoV	–	–
